Oc1ccc([C@@H]2COc3cc(O)ccc3C2)cc1
solubility (mole fraction)
Details	in isobutanol	in isopentanol	in isopropanol	in n-butanol	in n-heptane	in n-pentanol
273.15 K	0.0174	0.0226	0.0295	0.0242	0.000431	0.0235
278.15 K	0.02	0.0261	0.035	0.0284	0.00049	0.0273
283.15 K	0.0229	0.0301	0.0412	0.0331	0.000554	0.0317
288.15 K	0.0261	0.0345	0.0482	0.0384	0.000624	0.0365
293.15 K	0.0296	0.0394	0.0561	0.0442	0.000699	0.0419
298.15 K	0.0334	0.0447	0.065	0.0508	0.000781	0.0478
303.15 K	0.0376	0.0506	0.0749	0.0581	0.00087	0.0544
308.15 K	0.0421	0.057	0.086	0.0661	0.000964	0.0616
313.15 K	0.047	0.0639	0.0982	0.0749	0.00107	0.0695
318.15 K	0.0523	0.0715	0.112	0.0846	0.00117	0.078
323.15 K	0.058	0.0797	0.127	0.0951	0.00129	0.0874
328.15 K	0.0641	0.0885	0.143	0.107	0.00141	0.0975
333.15 K	0.0706	0.098	0.161	0.119	0.00155	0.108

— BigSolDB 2.1
